For one data set, the system named is Caco-2 cells. Nature of the data set: Epithelial transcellular transport of drug activity through Caco-2 monolayers. The data set is classed as in vitro ADME. As for the experimental part:
H4βAPP695 wt cells, a human […] cell line stably transfected with a wtβAPP695 expression vector construct under the control of a CMV promoter (kindly provided by Dr. Chris Eckman from Mayo Clinic, Florida) were cultured as previously described. Twenty-four hours before drug treatment, the media was replaced with serum-free media. Cells were then incubated with drugs (dissolved in DMSO) or vehicle for 24 h for collection of conditioned media and cell lysates. For the PKC inhibitors experiment, three inhibitors were treated 30 min prior to drug challenge. Primary cortical neurons were prepared from embryonic day 18 APP and presenilin 1 (APPswe, PSEN1dE9) transgenic mice on the C57BL/6 genetic background (Jackson Laboratories, strain no. 5864) as previously described. THLE-3 human hepatoma cells (from ATCC) were plated in 24-well plates that were precoated with 10 μg/mL bovine serum albumin, 10 μg/mL fibronectin, and 30 μg/mL bovine type I collagen. The cells were grown in BEGM media (Clonetics) until confluent and treated with drugs at 20 μM for 24 h. This conditioned media was harvested, diluted 1:1 in serum-free medium, and incubated with H4βAPP695 wt cells for 24 h prior to analysis of secreted Aβ, which was compared to the effect of 10 μM drug treatments without prior incubation with the THLE-3 cells. Caco-2 cells (ATCC) were plated in 12-well plates with Transwell inserts (Costar) at 70000 cells per well and grown for 21 days. The media volume of the apical and basal chambers was 0.5 and 1.5 mL, respectively. Transepithelial resistance was measured in each well and found to be >160 Ω/cm^2. Drugs at 40 μM and 20 μg/mL of lucifer yellow were added in serum-free medium to the apical chamber. Four hours later, the basal chamber media was harvested and used to measure lucifer yellow fluorescence to confirm monolayer integrity as well as for treatment of H4βAPP695 wt cells for 24 h prior to analysis of secreted Aβ, which was compared to the effect of direct addition of 10 μM of the corresponding drug.
Monolayer integrity was confirmed by high levels of transcellular electrical resistance (>160 ohms/cm^2) and by transcellular impermeability to the fluorescent dye lucifer yellow. […] The concentration of each compound added to the upper chamber would lead to 10 μM in the lower chamber if equilibration was complete, and thus the activity of the lower chamber media was compared to the activity of 10 μM drug added directly to the H4βAPP695 wt cells. […] Compound 1 crossed the monolayer and the bottom chamber media led to a 27% reduction in Aβ production, yielding 38% of the theoretical activity. The compound with the most activity in the lower chamber was compound 48, which decreased Aβ production by 50%, with 71% of its theoretical activity. […] On the basis of the combined activity data from these last two studies, compound 48 was selected as the lead drug for in vivo study.
A general note: Caco-2 cells form a polarised layer with tight junctions and transporters.

A further data set has as its system ADAM17. Nature of the data set: Western blot of pro and active ADAM17 in H4βAPP695 wt cells. The data set is classed as cell-based, human. The settings on record: increasing concentrations, 24 h. As for the experimental part:
Several members of the ADAM (a disintegrin and metalloproteinase) family, ADAM9, ADAM10, and ADAM17, have been reported to have α-secretase activity. […] Using antibodies specific for these three ADAM proteases, we assessed the levels of the pro and active forms in cells cultured with increasing concentrations of compound 1. […] At the 10 μM dose of compound 1, we observed a 31% increase in the ratio of active/pro ADAM9 (p<0.05), N=3 each control and compound 1) and a 42% increase in the ratio active/pro ADAM10 (p<0.05). Although the direct target for compound 1 has not been identified, it seems likely that its mechanism is via the increased ADAM 9 and ADAM10 processing into active α-secretase, which cleaves APP in a manner that precludes Aβ production.
A general note: A western blot detects proteins with antibodies after separation by electrophoresis.

This note sets out measurements from patent US20130158112A1, “COMPOSITIONS AND METHODS FOR INHIBITING BETA AMYLOID SECRETION” (priority 2011, published 2013).

The structures appear in SMILES notation. Where “and” joins values, the source holds several entries; their conditions need not be identical. Identical values can stand only once.

In the case of `O=C(NCCSCc1cccc(Cl)c1)c1c(Cl)cccc1Cl` [Compound 1], the “% theoretical activity” value in the data set with Caco-2 cells (% of activity passing through Caco-2 monolayer) is 38% and 38.4%. Moreover, the inhibition at 10 µM with Caco-2 cells (Homo sapiens, Caco-2, 10 μM drug alone added directly to H4βAPP695 wt cells, read-out: transcellular transport No total Aβ (% decrease)) stood at 69.4%. For the same compound, the inhibition at up to 10 µM in the data set with Caco-2 cells (Homo sapiens, Caco-2, 4 h, lower chamber media after 4 h on Caco-2 monolayer, 10 μM if in equilibrium, read-out: transcellular transport Yes total Aβ (% decrease)) was found to be 27%. For the same compound, in the data set with ADAM17, the “active form of ADAM17” value is given as “did not observe much effect”.
